Consider one substance from patent US11254987B2, “PD-L1 promoter methylation in cancer” (Genentech, Inc., priority 2015, dated 2022).

What all share (type): cell-based, human
The subject of one experiment is PD-L1 RNA expression. The experiment in a line: PD-L1 RNA expression by qRT-PCR in treated NSCLC cell lines (FIG. 3, 4A). As to the method: (§1) NSCLC cell lines were procured from American Type Cell Culture (ATCC) or academic sources and cultured in RPMI 1640 medium supplemented with 10% fetal bovine serum (FBS) and 2 mM L-glutamine. Cells were detached for splitting and/or experimental analysis following a PBS wash and incubation with Accutase detachment medium (Sigma). Cells were treated with 0.1 mM trichostatin A (“TSA,” Sigma) and/or 1 ng/mL interferon gamma (IFNγ) for 24 hours and 1 mM 5-azacitidine-dC (5-aza-dC, Sigma), for 3 days qd (i.e., once a day) or 6 days q2d (i.e., every other day).
Buffer RLT Plus (Qiagen) was used to lyse the cells for RNA and DNA extraction from the same lysate using the AllPrep DNA/RNA Mini Kit (Qiagen). RNA expression was analyzed by microarray on the GeneChip Human Genome U133 Plus 2.0 Array (Affymetrix) by Asuragen, Inc, and by qPCR using TaqMan Gene Expression Assays (Life Technologies). Data was analyzed using Genomics Suite (Partek), Spotfire (TIBCO), JMP (SAS), and IPA (Ingenuity). DNA was analyzed on the INFINIUM® HumanMethylation450 BeadChip (Illumina). DNA was bisulfite-modified using the Zymo DNA Gold Methylation kit (Zymo Research) and amplified with bisulfite specific sequencing primers targeting the CD274 promoter region. PCR products were TA-subcloned and sequenced using standard methods (ABI). ABI sequence files were analyzed using BIQ Analyzer software (C. Bock).
Cells from each of the cell lines were exposed to one of five conditions: (1) no treatment; (2) treatment with 1 mM 5-azacitidine-dC (5-aza-dC, a DNA demethylation agent); (3) treatment with 0.1 mM trichostatin A (TSA, a class I and class II mammalian histone […]); (4) treatment with 1 ng/mL interferon gamma (IFNg); or (5) treatment with a combination of 5-aza-dC, TSA, and IFNg. PD-L1 RNA expression was then measured by qRT-PCR.

The subject of another experiment is PD-L1 protein expression. The experiment in a line: Surface PD-L1 protein expression by FACS after IFNg treatment (FIG. 4A). How it is done: as §1
For FACS analysis, cells were detached then washed twice in FBS Staining Buffer (BD Biosciences). Cells were then stained with either PE-conjugated anti-human PD-L1 or isotype control (BD Biosciences) and then washed and analyzed on the FACSCanto II Analyzer (BD Biosciences).
PD-L1 protein expression loosely correlated with RNA expression in this subset of cell lines, both at baseline and following IFNg stimulation. […] In the A427 cell line, PD-L1 protein expression remained low. In the H292 and H358 cell lines, PD-L1 protein expression increased 3-4 fold, and in H322T, PD-L1 protein expression increased more than 48-fold as compared to baseline levels. […] As discussed above, baseline levels of PD-L1 protein in H322T were low.

A further experiment deals with PD-L1 expression. Nature of the experiment: PD-L1 expression after IFNg and/or STAT1 and STAT3 siRNA knockdown in A427 and H358 (FIG. 4C). As to conditions: H358 (unmethylated). How it is done:
Protein lysates were generated using Cell Extraction Buffer (Life Technologies), supplemented with SigmaFAST Protease Inhibitor Tablets (Sigma) and Phosphatase Inhibitor Cocktail 1 and 2 (Sigma). Lysates centrifuged at 20,000×g for 10 minutes at 4° C., and the supernatants were then removed for analysis by Western Blot (WB). Samples were treated with NuPage Novex LDS and SRA Buffers (Life Technologies) and loaded onto a Bis-Tris Gel (Life Technologies) alongside SeeBlue Plus2 molecular weight standard (Life Technologies). Gels were transferred to nitrocellulose membranes using the iBlot system (Life Technologies) and then blocked with Odyssey Blocking Buffer (LI-COR) for 1 hour at room temperature. Gels were stained with antibodies against human PD-L1 (in-house), β-actin (Sigma); p/t STAT1, p-STAT3-Y705, p-STAT3-5727, and t-STAT3 (all Cell Signaling) diluted in Odyssey Blocking Buffer+0.01% Tween-20. Primary antibodies were detected secondary antibodies from LI-COR in Odyssey Blocking Buffer+0.01% Tween-20+0.001% SDS and analyzed on the Odyssey CLx system (LI-COR).
Next, the relationship between PD-L1 promoter methylation and the IFNg/JAK/STAT pathway was investigated in A427 and H358 using siRNA. […]

In the case of “interferon gamma [IFNg, interferon gamma, used at 1 ng/mL to stimulate cells]”, the “PD-L1 RNA expression” value with PD-L1 RNA expression (A427 (high methylation) after IFNg stimulation) was 0.012 2^−DCt; with PD-L1 RNA expression (H292 (low methylation) after IFNg stimulation), 0.102 2^−DCt; with PD-L1 RNA expression (H322T (medium methylation) after IFNg stimulation, baseline 0.018) it was 1.356 2^−DCt; in the experiment on PD-L1 RNA expression (H358 (low methylation, high baseline) after IFNg stimulation), “no significant changes”. Further, the “PD-L1 RNA induction” value with PD-L1 RNA expression (A427, H322T, H292 and H358 stimulated with IFNg) is recorded as “increases”. Further, in the experiment on PD-L1 protein expression (A427 following IFNg treatment), the PD-L1 protein expression entry is recorded as “remained low”. The “PD-L1 protein expression increase” value in the experiment on PD-L1 protein expression (H292 following IFNg treatment, vs baseline) is listed as 3-4 fold; with PD-L1 protein expression (H322T following IFNg treatment, compared to baseline levels), “more than 48 fold”; with PD-L1 protein expression (H358 following IFNg treatment, vs baseline) it was 3-4 fold. For the same substance, in the experiment on PD-L1 protein expression (all four cell lines (A427, H322T, H292, H358) following IFNg treatment), the “surface PD-L1 protein levels” value is “increased”. The PD-L1 expression entry in the experiment with PD-L1 expression is on record as “further induced”.
